Measured values from article PMC9841530 (Journal of Medicinal Chemistry, 2022).
≈ marks a conversion by molar mass, not a printed value. Read-outs that look alike come from different tables or passages of the source.

Key:
[1] = Thermodynamic solubility in PBS; format: physicochemical; conditions: for Solubility: PBS (pH 7.5), concentration after 90 min of vortexing, ND: not detected; for fold more soluble than Cact-3: PBS solubility vs Cact-3
human wild-type CFTR = human wild-type CFTR (Homo sapiens, UniProt P13569); test: YFP fluorescence quenching assay of CFTR channel activity; format: cell-based; conditions: for fold less potent than Cact-3: YFP EC50 vs Cact-3
Chain of human wild-type CFTR (P13569 whole entry): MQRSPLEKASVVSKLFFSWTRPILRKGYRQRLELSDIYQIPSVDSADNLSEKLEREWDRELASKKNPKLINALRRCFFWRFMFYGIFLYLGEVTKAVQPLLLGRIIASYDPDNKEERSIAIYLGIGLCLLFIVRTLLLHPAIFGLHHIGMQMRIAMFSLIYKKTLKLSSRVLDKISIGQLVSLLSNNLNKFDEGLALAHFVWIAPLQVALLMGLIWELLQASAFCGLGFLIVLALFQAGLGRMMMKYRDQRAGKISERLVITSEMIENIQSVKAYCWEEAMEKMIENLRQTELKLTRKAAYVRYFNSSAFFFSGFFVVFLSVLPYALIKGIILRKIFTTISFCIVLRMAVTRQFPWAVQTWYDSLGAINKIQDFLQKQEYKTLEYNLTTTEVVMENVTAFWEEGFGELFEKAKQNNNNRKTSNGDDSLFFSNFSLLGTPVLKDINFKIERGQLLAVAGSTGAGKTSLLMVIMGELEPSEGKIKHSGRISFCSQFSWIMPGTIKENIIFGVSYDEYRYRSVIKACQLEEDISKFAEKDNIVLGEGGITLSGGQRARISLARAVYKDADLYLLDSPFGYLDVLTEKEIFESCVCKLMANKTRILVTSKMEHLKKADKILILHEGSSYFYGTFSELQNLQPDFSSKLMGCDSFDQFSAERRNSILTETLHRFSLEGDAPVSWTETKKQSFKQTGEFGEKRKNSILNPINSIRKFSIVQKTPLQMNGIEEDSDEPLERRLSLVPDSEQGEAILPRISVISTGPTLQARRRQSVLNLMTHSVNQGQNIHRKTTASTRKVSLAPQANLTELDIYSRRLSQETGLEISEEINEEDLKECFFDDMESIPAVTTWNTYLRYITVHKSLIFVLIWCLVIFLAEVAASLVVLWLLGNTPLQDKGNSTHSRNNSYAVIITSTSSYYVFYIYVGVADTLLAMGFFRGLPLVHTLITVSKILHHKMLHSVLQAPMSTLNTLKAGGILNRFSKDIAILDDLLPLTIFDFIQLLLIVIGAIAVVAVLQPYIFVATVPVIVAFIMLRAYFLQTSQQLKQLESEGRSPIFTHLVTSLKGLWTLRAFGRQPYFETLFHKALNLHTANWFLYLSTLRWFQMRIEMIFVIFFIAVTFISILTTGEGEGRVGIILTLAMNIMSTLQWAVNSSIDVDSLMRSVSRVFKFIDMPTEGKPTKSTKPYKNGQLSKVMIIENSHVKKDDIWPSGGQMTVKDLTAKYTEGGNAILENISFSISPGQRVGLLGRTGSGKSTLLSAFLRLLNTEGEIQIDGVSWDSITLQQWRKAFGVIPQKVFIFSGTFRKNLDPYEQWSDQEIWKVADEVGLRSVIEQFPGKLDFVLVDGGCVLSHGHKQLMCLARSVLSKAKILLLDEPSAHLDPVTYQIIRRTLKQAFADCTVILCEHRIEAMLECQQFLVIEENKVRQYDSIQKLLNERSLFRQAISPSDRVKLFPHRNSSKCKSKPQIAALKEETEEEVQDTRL

human ANO1 = target: T1, human ANO1 (Homo sapiens, UniProt Q5XXA6); test: ANO1 apical membrane current in FRT cells expressing human ANO1; format: cell-based; conditions: 16d 30 μM, Ani9 10 μM; ANO1 activated by 100 μM ATP
T1 sequence (Q5XXA6 1-986): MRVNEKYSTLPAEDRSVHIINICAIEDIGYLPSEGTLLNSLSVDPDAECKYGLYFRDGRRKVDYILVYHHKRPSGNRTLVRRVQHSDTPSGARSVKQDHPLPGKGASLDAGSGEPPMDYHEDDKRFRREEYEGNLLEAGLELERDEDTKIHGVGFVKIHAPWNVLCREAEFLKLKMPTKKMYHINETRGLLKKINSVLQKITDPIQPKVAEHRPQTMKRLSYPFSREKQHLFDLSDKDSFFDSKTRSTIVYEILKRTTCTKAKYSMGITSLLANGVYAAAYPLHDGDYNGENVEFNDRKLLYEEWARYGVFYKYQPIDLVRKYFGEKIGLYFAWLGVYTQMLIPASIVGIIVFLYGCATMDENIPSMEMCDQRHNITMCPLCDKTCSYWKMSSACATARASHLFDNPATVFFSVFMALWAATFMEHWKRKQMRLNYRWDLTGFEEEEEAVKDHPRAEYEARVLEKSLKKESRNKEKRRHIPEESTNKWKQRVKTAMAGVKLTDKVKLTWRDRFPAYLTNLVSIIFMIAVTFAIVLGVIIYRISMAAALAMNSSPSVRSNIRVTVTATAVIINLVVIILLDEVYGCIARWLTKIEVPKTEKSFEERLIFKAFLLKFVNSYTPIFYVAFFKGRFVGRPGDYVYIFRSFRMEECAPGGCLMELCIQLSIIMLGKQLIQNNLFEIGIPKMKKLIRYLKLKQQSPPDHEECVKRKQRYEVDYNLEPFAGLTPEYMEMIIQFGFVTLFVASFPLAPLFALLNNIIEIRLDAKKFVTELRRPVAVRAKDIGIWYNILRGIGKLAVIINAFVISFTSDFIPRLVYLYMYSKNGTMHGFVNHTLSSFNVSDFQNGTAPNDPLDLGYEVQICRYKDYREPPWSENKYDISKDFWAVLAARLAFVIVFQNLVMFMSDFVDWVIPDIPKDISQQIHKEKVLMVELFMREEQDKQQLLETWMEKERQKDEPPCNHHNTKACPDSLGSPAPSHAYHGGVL

[2] = tested on: volume-regulated anion channel (VRAC); test: VRAC activity by YFP fluorescence quenching assay; format: cell-based; conditions: 16d 30 μM, VI-116 10 μM; hypotonic solution 5 min
intracellular cAMP = test: Intracellular cAMP measurement in CHO-K1 cells; format: cell-based; conditions: 30 μM, 10 min, IBMX 100 μM, compared to the control
[3] = tested on: corneal epithelial (CorE) cells; test: Corneal epithelial cytotoxicity test; format: cell-based, human; conditions: 30 μM, 48 h, MTS assay
[4] = tested on: conjunctival epithelial (ConjE) cells; test: Conjunctival epithelial cytotoxicity test; format: cell-based, human; conditions: 30 μM, 48 h, MTS assay
[5] = format: in vivo, New Zealand White Rabbit; conditions: rabbit; for AUC0-24 / AUC0-inf / AUC0-last: 0.1 mg/eye
[6] = Maximum solubility for eye drop administration; format: physicochemical
[7] = tested on: normal female C57BL/6J mice; test: Tear volume in normal mice; format: in vivo, mouse; conditions: for effect on tear volume: 16d up to 1 mM, Cact-3 up to 72 μM
[8] = tested on: scopolamine-induced dry eye mouse model; test: Tear volume in scopolamine-induced dry eye mouse model; format: in vivo; conditions: DED mice; 5 μL eye drops three times a day for 10 days; 16d 2060 μM, 0.3% diquafosol sodium
[9] = tested on: scopolamine-induced dry eye mouse model; test: Corneal erosion grading in scopolamine-induced dry eye mouse model; format: in vivo; conditions: DED mice; 16d 2060 μM three times a day for 10 days; compared to control group
IL-1β mRNA = conditions: mouse, in vivo
IL-17 mRNA = conditions: mouse, in vivo
TNF-α mRNA = conditions: mouse, in vivo
MMP-2 mRNA = conditions: mouse, in vivo
human CFTR [10] = target: T2, human CFTR (Homo sapiens, UniProt P13569); test: Apical membrane current in FRT cells expressing human CFTR; format: cell-based; conditions: 10 μM CFTRinh-172
T2 sequence (P13569 whole entry): as the sequence (P13569 whole entry) above

human CFTR [11] = target: T2, human CFTR; conditions: 20 μM CFTRinh-172; CHO-K1 cells expressing human CFTR
endogenous CFTR channels = endogenous CFTR channels (Homo sapiens, UniProt P13569); conditions: 10 μM CFTRinh-172; primary cultured human conjunctival epithelial cells
Chain of endogenous CFTR channels (P13569 whole entry): as the sequence (P13569 whole entry) above

## COc1ccc(-c2ccnc3cc(C(=O)Nc4ccc(OCCN5CCOCC5)cc4)nn23)cc1OC [5e, 7-(3,4-Dimethoxyphenyl)-N-(4-(2-morpholinoethoxy)phenyl)pyrazolo[1,5-a]pyrimidine-2-carboxamide]
[1]
  Solubility: completely insoluble

## COc1ccc(-c2ccnc3cc(C(=O)Nc4ccc(N5CCOCC5)cc4)nn23)cc1OC [5f, 7-(3,4-Dimethoxyphenyl)-N-(4-morpholinophenyl)pyrazolo[1,5-a]pyrimidine-2-carboxamide]
[1]
  Solubility: completely insoluble

## COC(=O)c1ccc(CNC(=O)c2cc3nccc(-c4ccc(OC)c(OC)c4)n3n2)cc1 [5g, Methyl 4-((7-(3,4-dimethoxyphenyl)pyrazolo[1,5-a]pyrimidine-2-carboxamido)methyl)benzoate]
Human wild-type CFTR; YFP EC50 vs 5d
  fold less potent than 5d: 34 fold

## COc1ccc(-c2ccnc3cc(C(=O)NCc4ccc(N5CCOCC5)cc4)nn23)cc1OC [5h, 7-(3,4-Dimethoxyphenyl)-N-(4-morpholinobenzyl)pyrazolo[1,5-a]pyrimidine-2-carboxamide]
Human wild-type CFTR; YFP EC50 vs 5f
  fold less potent than 5f: 101 fold

## COc1ccc(-c2ccnc3cc(C(=O)Nc4ccc(C(=O)O)cc4)nn23)cc1OC [9a, 4-(7-(3,4-Dimethoxyphenyl)pyrazolo[1,5-a]pyrimidine-2-carboxamido)benzoic Acid]
Human wild-type CFTR
  fold less potent than Cact-3: 17 fold
[1]
  fold more soluble than Cact-3: 88 fold

## COc1ccc(-c2ccnc3cc(C(=O)Nc4ccc(C(=O)O)cc4F)nn23)cc1OC [9b, 4-(7-(3,4-Dimethoxyphenyl)pyrazolo[1,5-a]pyrimidine-2-carboxamido)-3-fluorobenzoic Acid]
Human wild-type CFTR; YFP EC50 vs 9a
  times more potent than 9a: 7 times
[1]; vs 9a
  solubility/YFP ratio, fold less than 9a: 2 fold

## COc1ccc(-c2ccnc3cc(C(=O)Nc4ccc(C(=O)N5CCOCC5)cc4)nn23)cc1OC [10a, 7-(3,4-Dimethoxyphenyl)-N-(4-(morpholine-4-carbonyl)phenyl)pyrazolo[1,5-a]pyrimidine-2-carboxamide]
[1]
  Solubility: completely insoluble

## COc1ccc(-c2ccnc3cc(C(=O)Nc4ccc(C(=O)N5CCN(C)CC5)cc4)nn23)cc1OC.Cl [11c, 7-(3,4-Dimethoxyphenyl)-N-(4-(4-methylpiperazine-1-carbonyl)phenyl)pyrazolo[1,5-a]pyrimidine-2-carboxamide Hydrochloride]
Human wild-type CFTR; YFP EC50 vs 11a
  fold more potent than 11a: 13 fold
Human wild-type CFTR
  fold less potent than Cact-3: 16 fold
[1]
  fold more soluble than Cact-3: 4017 fold

## COc1ccc(-c2ccnc3cc(C(=O)N4CCN(C(=O)c5ccccc5)CC4)nn23)cc1OC [16b, (4-Benzoylpiperazin-1-yl)(7-(3,4-dimethoxyphenyl)pyrazolo[1,5-a]pyrimidin-2-yl)methanone]
Human wild-type CFTR; YFP EC50 vs 16a
  fold more potent than 16a: 7 fold

## COc1ccc(-c2ccnc3cc(C(=O)N4CCN(C(=O)c5ccccc5)[C@@H](C)C4)nn23)cc1OC [16d, (S)-(4-Benzoyl-3-methylpiperazin-1-yl)(7-(3,4-dimethoxyphenyl)pyrazolo[1,5-a]pyrimidin-2-yl)methanone]
Human ANO1
  effect on ANO1 channel activity: did not affect
[2]
  effect on VRAC channel activity: did not affect
Intracellular cAMP
  effect on intracellular cAMP level: slightly increased
[3]
  effect on cell viability of CorE: did not affect
[4]
  effect on cell viability of ConjE: did not affect
[5]; mean conjunctiva
  AUC0-24: 4734.0 ng·h/mL or ng·h/g
  AUC0-inf: 13741.0 ng·h/mL or ng·h/g
  AUC0-last: 9819.0 ng·h/mL or ng·h/g
[5]; mean cornea
  AUC0-24: 19409.0 ng·h/mL or ng·h/g
  AUC0-inf: 35802.0 ng·h/mL or ng·h/g
  AUC0-last: 28349.0 ng·h/mL or ng·h/g
[5]; topical ocular administration 0.1 mg/eye
  adverse effects during the PK study: No adverse effects
[5]; cornea and conjunctiva
  period maintained in cornea and conjunctiva: > 8 h
[6]
  Solubility: > 2000 µM
[7]
  Emax (tear volume): higher than Cact-3
  effect on tear volume: dose-dependent increase
[8]
  effect on scopolamine-induced tear volume decrease: significantly and almost completely restored
[9]
  effect on corneal erosion: significantly reduced
IL-1β mRNA
  mRNA expression level of IL-1β: significantly decreased
IL-17 mRNA
  mRNA expression level of IL-17: significantly decreased
TNF-α mRNA
  mRNA expression level of TNF-α: significantly decreased
MMP-2 mRNA
  mRNA expression level of MMP-2: significantly decreased

## O=C(O)c1ccc(/C=C2\SC(=S)N(c3cccc(C(F)(F)F)c3)C2=O)cc1 [CFTRinh-172]
Human CFTR [10]
  block of 16d-induced CFTR chloride current: completely blocked
Human CFTR [11]
  inhibition of 16d-induced CFTR whole-cell currents: completely inhibited
Endogenous CFTR channels
  inhibition of 16d-induced CFTR current (short-circuit current): fully inhibited

## CCOc1ccc(NC(=O)c2cc3nccc(-c4ccc(OC)c(OC)c4)n3n2)cc1 [compound 1, 7-(3,4-Dimethoxyphenyl)-N-(4-ethoxyphenyl)pyrazolo[1,5-a]pyrimidine-2-carboxamide]
[1]; PBS, pH 7.5
  solubility at 90 min: 0.059 µM (≈ 0.0247 µg/mL)
[6]
  Solubility: 72 µM (≈ 30.1 µg/mL)
[7]; 2.5 μL eye drops, once
  time of maximal tear volume after administration: 3 h
[7]
  effect on tear volume: dose-dependent increase

## O=c1ccn([C@@H]2O[C@H](COP(=O)(O)OP(=O)(O)OP(=O)(O)OP(=O)(O)OC[C@H]3O[C@@H](n4ccc(=O)[nH]c4=O)[C@H](O)[C@@H]3O)[C@@H](O)[C@H]2O)c(=O)[nH]1 [diquafosol, reference compound]
[8]
  effect on scopolamine-induced tear volume decrease: significant recovery
IL-17 mRNA
  mRNA expression level of IL-17: significantly reduced
TNF-α mRNA
  mRNA expression level of TNF-α: significantly reduced
MMP-2 mRNA
  mRNA expression level of MMP-2: significantly reduced
